Reference: patent US4429127A, “Quinoline carboxylic acid derivative” (Kyorin Pharmaceutical Co., Ltd., priority 1981, dated 1984)
≈ marks a conversion by molar mass, not a printed value.

How the values were obtained:
Assay in all cases: In vitro antibacterial activity (MIC, agar dilution)
Assay type in all cases: cell-based
S. epidermidis IID866 = details: Staphylococcus epidermidis, inoculum 10^8 cells/ml
Method: (§1) The minimum inhibitory concentration (MIC) of the compound (I) was determined by an agar dilution technique (the standard method of Japan Society of Chemotherapy) against standard strains of gram-positive and gram-negative bacteria.
(§2) Inoculum size: 10^8 cells/ml

[1] = system: Yersinia enterocolitica IID981; details: inoculum 10^8 cells/ml
Method: as §1, §2

[2] = system: Pseudomonas aeruginosa V-1; details: V1; Pseudomonas aeruginosa V-1; inoculum 10^8 cells/ml; read-out: MIC
Method: as §1, §2

[3] = system: Staphylococcus aureus 209P; details: Staphylococcus aureus 209P; inoculum 10^8 cells/ml; read-out: MIC
Method: as §1, §2

[4] = system: Haemophilus influenzae IID986; details: Haemophilus influenzae IID986; inoculum 10^8 cells/ml; read-out: MIC
Method: as §1, §2

E. coli NIHJ JC-2 = details: Escherichia coli, NIHJJC2; E. coli NIHJ JC-2; inoculum 10^8 cells/ml; read-out: MIC
Method: as §1, §2

[5] = system: Serratia marcescens IID618; details: inoculum 10^8 cells/ml
Method: as §1, §2

[6] = system: Salmonella enteritidis IID604; details: Salmonella enterica; Salmonella enteritidis IID604; inoculum 10^8 cells/ml; read-out: MIC
Method: as §1, §2

S. faecalis IID682 = details: Enterococcus faecalis; S. faecalis IID682; inoculum 10^8 cells/ml; read-out: MIC
Method: as §1, §2

S. pyogenes S-8 = details: Streptococcus pyogenes, S8; S. pyogenes S-8; inoculum 10^8 cells/ml; read-out: MIC
Method: as §1, §2

[7] = system: Enterobacter cloacae IID977; details: inoculum 10^8 cells/ml
Method: as §1, §2

E. coli ATCC10536 = details: Escherichia coli; E. coli ATCC10536; inoculum 10^8 cells/ml; read-out: MIC
Method: as §1, §2

[8] = system: Citrobacter freundii IID976; details: inoculum 10^8 cells/ml
Method: as §1, §2

[9] = system: Alcaligenes faecalis 0104002; details: inoculum 10^8 cells/ml
Method: as §1, §2

## CCn1cc(C(=O)O)c(=O)c2cc(F)c(N3CCN(Cc4ccc(N)cc4)CC3)c(F)c21 [compound (I), 7-[4-(p-aminobenzyl)-1-piperazinyl]-1-ethyl-6,8-difluoro-1,4-dihydro-4-oxoquinoline-3-carboxylic acid]
S. epidermidis IID866
  MIC: 0.2 µg/mL (≈ 0.452 µM)
[1]
  MIC: 1.56 µg/mL (≈ 3.53 µM)
[2]
  MIC: 12.5 µg/mL (≈ 28.3 µM)
[3]
  MIC: 0.1 µg/mL (≈ 0.226 µM)
[4]
  MIC: 0.2 µg/mL (≈ 0.452 µM)
E. coli NIHJ JC-2
  MIC: 0.2 µg/mL (≈ 0.452 µM)
[5]
  MIC: 3.13 µg/mL (≈ 7.07 µM)
[6]
  MIC: 1.56 µg/mL (≈ 3.53 µM)
S. faecalis IID682
  MIC: 0.78 µg/mL (≈ 1.76 µM)
S. pyogenes S-8
  MIC: 0.78 µg/mL (≈ 1.76 µM)
[7]
  MIC: 1.56 µg/mL (≈ 3.53 µM)
E. coli ATCC10536
  MIC: 0.39 µg/mL (≈ 0.881 µM)
[8]
  MIC: 1.56 µg/mL (≈ 3.53 µM)
[9]
  MIC: 3.13 µg/mL (≈ 7.07 µM)
